From ChEMBL document CHEMBL3727346, “6-(pyridinyl)-4-pyrimidone derivates as tau protein kinase 1 inhibitors” (2011) come the findings set out here.

Active and inactive are the calls of the source. How the calls were made is not given here.

For the assay, the target named is Glycogen synthase kinase-3 beta splice variant X1 (Bos taurus) (UniProt A0A059UE90). Put plainly: Inhibition of bovine cerebral TPK1 assessed as reduction in P-GS1 phosphorylation using [32gammaP]ATP incubated for 2 hrs by liquid scintillation counting method.

Take `CN(C)[C@@H]1CCN(c2ccc([C@H]3CN(c4nc(-c5ccncc5F)cc(=O)n4C)CCN3)cc2)C1`: the inhibition entry is “Active”.

Turning to `Cn1c(N2CCO[C@@H](c3ccc(N4CCCNC4=O)cc3)C2)nc(-c2ccncc2F)cc1=O`, the inhibition result was “Active”.

Regarding `COc1ccc(N)cc1[C@H]1CN(c2nc(-c3ccncc3F)cc(=O)n2C)CCO1`, the inhibition entry is “Active”. To `CN(C)CCOc1ccc([C@H]2CN(c3nc(-c4ccncc4F)cc(=O)n3C)CCO2)cc1` belongs “Active”; to `CSc1ccc(-c2ccc([C@H]3CN(c4nc(-c5ccncc5F)cc(=O)n4C)CCN3)cc2)cc1`, “Active”. To `Cn1c(N2CCO[C@@H](c3c(F)cccc3Cl)C2)nc(-c2ccncc2F)c(F)c1=O` belongs “Active”. Consider `Cn1c(N2CCN[C@@H](c3ccc(N4CCCC4)cc3)C2)nc(-c2ccncc2F)cc1=O`, for which the inhibition entry is “Active”. `Cn1c(N2CCO[C@@H](c3ccc(NS(=O)(=O)c4ccccc4)cc3)C2)nc(-c2ccncc2F)cc1=O`: the inhibition result is “Active”. Consider `CC(=O)c1ccc([C@H]2CN(c3nc(-c4ccncc4F)cc(=O)n3C)CCO2)cc1`, for which the inhibition entry is “Active”.

In the case of `CCN(CC)c1ccc([C@H]2CN(c3nc(-c4ccncc4F)cc(=O)n3C)CCO2)c(OC)c1`, the inhibition entry is “Active”.

For `Cn1c(N2CCO[C@@H](c3ccc(N4CC[C@H](N5CCOCC5)C4)cc3)C2)nc(-c2ccncc2F)cc1=O`, the inhibition entry is “Active”. For the molecule `Cn1c(N2CCO[C@@H](c3ccc(F)cc3)C2)nc(-c2ccncc2F)cc1=O`, the inhibition entry is “Active”. On to `Cn1c(N2CCO[C@@H](c3ccc(NS(=O)(=O)Cc4ccccc4)cc3)C2)nc(-c2ccncc2F)cc1=O`, for which the inhibition entry is “Active”. With `Cn1c(N2CCO[C@@H](c3ccc(NC(=O)CN4CCOCC4)cc3)C2)nc(-c2ccncc2F)cc1=O`, the inhibition result was “Active”. With `Cn1c(N2CCO[C@@H](c3ccc(N4CCN(CCO)CC4)cc3)C2)nc(-c2ccncc2F)cc1=O`, the inhibition result was “Active”.

With `CNc1ccc([C@H]2CN(c3nc(-c4ccncc4F)cc(=O)n3C)CCO2)cc1`, the inhibition entry was “Active”.

For `Cn1c(N2CCO[C@@H](c3ccc(OCC4CC4)cc3)C2)nc(-c2ccncc2F)cc1=O`, the inhibition result is “Active”.

As for `Cn1c(N2CCO[C@@H](c3ccc(C(=O)NCc4ccccc4)cc3)C2)nc(-c2ccncc2F)cc1=O`, the inhibition result is “Active”. As to `Cn1c(N2CCOC(c3ccc4c(c3)NC(=O)CO4)C2)nc(-c2ccncc2F)cc1=O` (racemic), the inhibition entry was “Active”. To `Cn1c(N2CCO[C@@H](c3ccc(CN4CCOCC4)cc3)C2)nc(-c2ccncc2F)cc1=O` belongs “Active”; to `Cn1c(N2CCO[C@@H](c3ccc(N4CCCC4)cc3)C2)nc(-c2ccncc2F)cc1=O`, “Active”. On to `Cn1c(N2CCN[C@@H](c3ccc(N4CCC(N5CCCCC5)CC4)cc3)C2)nc(-c2ccncc2F)cc1=O`, for which the inhibition entry is “Active”. Turning to `CN(c1ccc([C@H]2CN(c3nc(-c4ccncc4F)cc(=O)n3C)CCO2)cc1)C12CC3CC(CC(C3)C1)C2`, the inhibition entry is “Active”. Turning to `Cn1c(N2CCO[C@@H](c3ccc(OC4CCN(C(=O)c5ccccc5)CC4)cc3)C2)nc(-c2ccncc2F)cc1=O`, the inhibition result was “Active”. To `CC(C)Nc1ccc([C@H]2CN(c3nc(-c4ccncc4F)cc(=O)n3C)CCO2)cc1` belongs “Active”; to `CC(C)Oc1ccc([C@H]2CN(c3nc(-c4ccncc4F)cc(=O)n3C)CCO2)cc1`, “Active”. For the molecule `CN1CCN(CC(=O)Nc2ccc([C@H]3CN(c4nc(-c5ccncc5F)cc(=O)n4C)CCO3)cc2)CC1`, the inhibition entry was “Active”. In the case of `Cn1c(N2CCO[C@@H](c3ccc(NC(=O)CN4CCCCC4)cc3)C2)nc(-c2ccncc2F)cc1=O`, the inhibition entry was “Active”. On to `Cn1c(N2CCO[C@@H](c3ccc(OC[C@@H](O)CN4CCCC4)cc3)C2)nc(-c2ccncc2F)cc1=O`, for which the inhibition entry is “Active”. As to `Cn1c(N2CCO[C@@H](c3cccc(N)c3)C2)nc(-c2ccncc2F)cc1=O`, the inhibition entry is “Active”.

As for `Cn1c(N2CCO[C@@H](c3ccc(NC(=O)CN4CCN(c5ccccc5)CC4)cc3)C2)nc(-c2ccncc2F)cc1=O`, the inhibition entry is “Active”.

`COc1ccc(NC(=O)C2CC2)cc1[C@H]1CN(c2nc(-c3ccncc3F)cc(=O)n2C)CCO1`: the inhibition result was “Active”. Consider `Cn1c(N2CCO[C@@H](c3ccc(NS(C)(=O)=O)cc3)C2)nc(-c2ccncc2F)cc1=O`, for which the inhibition entry is “Active”.

In the case of `CC(=O)N1CCN(CCOc2ccc([C@H]3CN(c4nc(-c5ccncc5F)cc(=O)n4C)CCO3)cc2)CC1`, the inhibition entry was “Active”. With `Cn1c(N2CCO[C@@H](c3ccc(N4CCC[C@H]5CCCC[C@@H]54)cc3)C2)nc(-c2ccncc2F)cc1=O`, the inhibition entry is “Active”. As for `Cn1c(N2CCN[C@@H](c3ccc(N4CC[C@H](N5CCCC5)C4)cc3)C2)nc(-c2ccncc2F)cc1=O`, the inhibition result was “Active”. As for `CC(=O)N(c1ccc([C@H]2CN(c3nc(-c4ccncc4F)cc(=O)n3C)CCO2)cc1)C(C)C`, the inhibition result is “Active”. Consider `Cn1c(N2CCO[C@@H](c3ccc(NC(=O)CN4CCCC4)cc3)C2)nc(-c2ccncc2F)cc1=O`, for which the inhibition result was “Active”. On to `Cn1c(N2CCO[C@@H](c3ccc(-c4nnco4)cc3)C2)nc(-c2ccncc2F)cc1=O`, for which the inhibition entry was “Active”.

Take `Cn1c(N2CCO[C@@H](c3ccc(OCCCN4CCCC4)cc3)C2)nc(-c2ccncc2F)cc1=O`: the inhibition entry was “Active”. Turning to `Cn1c(N2CCNC(c3ccc(-c4ncon4)cc3)C2)nc(-c2ccncc2F)cc1=O` (stereo not drawn), the inhibition result is “Active”. As for `COc1ccc(-c2ccc([C@H]3CN(c4nc(-c5ccncc5F)cc(=O)n4C)CCN3)cc2)cc1OC`, the entry is “Active”; as for `Cn1c(N2CCO[C@@H](c3ccc(N4CCc5ccccc54)cc3)C2)nc(-c2ccncc2F)cc1=O`, “Active”. For `Cn1c(N2CCO[C@@H](c3ccc(N4CCC(O)C4)cc3)C2)nc(-c2ccncc2F)cc1=O` (stereo partly drawn), the inhibition entry is “Active”. For the molecule `CN1CCN(c2ccc([C@H]3CN(c4nc(-c5ccncc5F)cc(=O)n4C)CCO3)cc2)CC1`, the inhibition entry is “Active”. With `CCN(CC)Cc1ccc([C@H]2CN(c3nc(-c4ccncc4F)cc(=O)n3C)CCO2)cc1`, the inhibition entry was “Active”.

For the molecule `CN(C)C1CCN(c2ccc([C@H]3CN(c4nc(-c5ccncc5F)cc(=O)n4C)CCO3)cc2)CC1`, the inhibition entry was “Active”. As for `Cn1c(N2CCO[C@@H](c3ccc(CO)cc3)C2)nc(-c2ccncc2F)cc1=O`, the inhibition entry was “Active”. With `Cn1c(N2CCO[C@@H](c3ccc(NC45CC6CC(CC(C6)C4)C5)cc3)C2)nc(-c2ccncc2F)cc1=O`, the inhibition result is “Active”.

`Cn1c(N2CCO[C@@H](c3ccc(N4CCNC4=O)cc3)C2)nc(-c2ccncc2F)cc1=O`: the inhibition entry is “Active”. `CN(C)[C@H]1CCN(c2ccc([C@H]3CN(c4nc(-c5ccncc5F)cc(=O)n4C)CCO3)cc2)C1`: the inhibition entry was “Active”.

For the molecule `Cn1c(N2CCO[C@@H](c3ccc(F)cc3)C2)nc(-c2ccncc2F)c(F)c1=O`, the inhibition entry is “Active”. With `Cn1c(N2CCO[C@@H](c3ccc(O)cc3)C2)nc(-c2ccncc2F)cc1=O`, the inhibition entry was “Active”.
